Measurements from paper PMC6614837 (Nucleic Acids Research, 2019).

Tests used:
RNase P holoenzyme = molecular target: T1, RNase P holoenzyme (Thermotoga maritima, UniProt Q9X1H4); experiment: Gel-based activity assay, bipartite pre-tRNA substrate, holoenzyme; assay type: biochemical, T. maritima; conditions: 100 mM AmOAc, 10 mM MgCl2
T1 construct: GST (cleaved yes); made in house; host or cells: E. coli BL21(DE3)pLysS
T1 sequence (Q9X1H4 1-117): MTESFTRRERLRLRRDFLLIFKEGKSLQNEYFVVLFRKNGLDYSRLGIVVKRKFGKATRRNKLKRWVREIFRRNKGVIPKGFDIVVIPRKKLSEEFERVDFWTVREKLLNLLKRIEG
Procedure: For gel-based activity assays, reactions were prepared as described in the previous section (fluorescence activity assay), incubated for 1–15 min at 37–50°C, then loaded onto a denaturing 7 M urea–20% acrylamide gel in the case of the Mh substrate or 19% acrylamide (40% acrylamide/bisacrylamide 38.5:1.5) for the bipartite pre-tRNA substrate. The activity conditions for the gel reported in Figure 3A, to monitor the cleavage of the holoenzyme and P RNA, were under 100 mM AmOAc and 10 mM MgCl2. The gels (13 × 16 × 0.15 cm) were electrophoresed at 20 V/cm for 2–3 h. UV shadowing or ethidium bromide staining was used to visualize RNA cleavage. Detection of minihelix fluorescence was achieved without staining using a UV lamp with excitation at ∼254 nm.
Figure 3. The inhibitors purpurin and hematein bind to the holoenzyme. (A) Top. […] Bottom. […] (B) The relative affinities of the inhibitors for the P RNA or the holoenzyme differ. Binding sensorgrams obtained by biolayer interferometry (BLI). P RNA or RNase P holoenzyme was immobilized on super streptavidin (SSA) biosensors through a 5′-biotinylated RNA oligonucleotide complementary to a region on the P1 stem of P RNA (see Materials and Methods). […] In contrast, gentian violet binds not only to P RNA but also to the Mh substrate (Supplementary Figure S16). […]

P RNA = experiment: Biolayer interferometry binding to immobilized P RNA; parameters: species or system T. maritima; conditions: BLI, P RNA on SSA biosensors via biotinylated oligonucleotide
Procedure: Real-time binding assays of the holoenzyme, P RNA, P protein, the substrate minihelix and the 5′-leader to individual compounds were performed by biolayer interferometry using an Octet RED96 system (ForteBio). For the holoenzyme or P RNA, a 5′ biotinylated RNA oligonucleotide with the sequence 5′biotin-CAUUCCAGACGAU was immobilized on Super Streptavidin (SSA) biosensors. Then, a modified P RNA or holoenzyme was added. The P RNA modification consisted of a sequence with part of the P1 stem sequence complementary to the biotinylated oligonucleotide (AUCGUCUGGA) (Supplementary Figure S23A). P1 is far from the active site or other regions involved in specific interactions (Supplementary Figure S23B) ([19]). The activity of this construct was indistinguishable from the wild-type holoenzyme. Alternatively, the holoenzyme was immobilized through the His-tagged P protein from T. maritima at 0.05 mg/ml (3.4 μM) on Ni-NTA biosensors. Control biosensors were used to subtract non-specific binding of compounds to the biosensor surface. All assay steps (immobilization, wash, baseline, association, and dissociation) were performed in 20 mM HEPES pH 7.4, 100 mM ammonium acetate, 10 mM MgCl2, 2.5% DMSO. The assays were performed on black bottom 96-well microplates (Greiner Bio-One 655209) in a total volume of 200 μl, at 30°C with orbital shaking at 1000 rpm. Experiments were controlled with the software Data Acquisition 8.2 (ForteBio, Inc.). Kinetic binding parameters were calculated using Data Analysis 8.2 (ForteBio, Inc.). After subtraction of reference biosensors, the binding curves were aligned to the X- and Y-axis and the association-dissociation inter-step curve in order to get a common baseline for the association and dissociation phases.
Figure 3. The inhibitors purpurin and hematein bind to the holoenzyme. (A) Top. […] Bottom. […] (B) The relative affinities of the inhibitors for the P RNA or the holoenzyme differ. Binding sensorgrams obtained by biolayer interferometry (BLI). […]

[1] = molecular target: T2, RNase P holoenzyme from T. maritima (Thermotoga maritima, UniProt Q9X1H4); experiment: End-point urea-PAGE RNase P activity assay with canonical pre-tRNA substrate; assay type: biochemical; conditions: 10% DMSO
T2 construct: made in house
T2 sequence (Q9X1H4 1-117): T1 sequence (Q9X1H4 1-117)
Procedure: Supplementary Figure 11 . End-point urea-PAGE RNase P activity assays using a canonical pre-tRNA substrate are in agreement with the fluorescence inhibition experiments. RNase P holoenzyme from T. maritima is inhibited by the four validated hits, as observed in an 18% urea- PAGE end-point assay. RNase P holoenzyme was incubated in the presence of 10% DMSO (+) or different concentrations of compound for 30 min at 37°C. See also Supplementary Figure […]
Supplementary Figure 12. End-point urea-PAGE RNase P activity assays using a canonical pre-tRNA substrate are in agreement with the fluorescence inhibition experiments using the minihelix substrate. Compound-dependent disappearance of the pre-tRNA substrate, with a […]
biological substrate for the inhibitors (juglone and purpurin). The assays were performed under the following conditions: 66 nM RNase P holoenzyme, in a total volume of 20 µL in activity buffer (33 mM Tris, 66 mM HEPES pH 7.4, 400 mM ammonium acetate, 100 mM MgCl2) were incubated in the presence of 10% DMSO (+) or different concentrations of compound for 30 min at 37° C. Then, pre-tRNA was added to a final concentration of 1.6 µM and the reaction was incubated at 55° C for 25 min before gel loading. […]

SMILES | Inhibition of the holoenzyme reaction (RNase P holoenzyme) | Binding to P RNA (P RNA) | Inhibition of pre-tRNA cleavage (urea-PAGE end-point) [1]
O=C1C=C2CC3(O)COc4c(ccc(O)c4O)C3=C2C=C1O (stereo not drawn) [Hematein, 3,4,6a,10-tetrahydroxy-6a,7-dihydroindeno[2,1-c]chromen-9(6H)-one] | inhibit the reaction catalyzed by the RNase P holoenzyme | binds only slightly to P RNA | 
O=C1C=CC(=O)c2c(O)cccc21 [Juglone, 5-hydroxy-1,4-naphthoquinone] |  |  | confirms the inhibition
O=C1c2ccccc2C(=O)c2c(O)c(O)cc(O)c21 [Purpurin, 1,2,4-trihydroxyanthraquinone] | inhibit the reaction catalyzed by the RNase P holoenzyme | does not bind to P RNA | confirms the inhibition
